Each block holds one compound with its values, some of them ahead of it.
What was measured:
[1] = Entry-into-man studies in healthy subjects (Almeida I, Almeida II), plasma and urine pharmacokinetics; type: in vivo, human
Text: Studies in humans have shown that, after oral administration, eslicarbazepine acetate appears to be rapidly and extensively metabolized to the active metabolite eslicarbazepine and, in a minor extent, to R-licarbazepine. See Silveira et al., “BIA 2-093 Pharmacokinetics in Healthy Elderly Subjects,” Epilepsia, 45 (suppl. 3), 157 (2004). […] See Almeida I; Almeida, L. & Soares-da-Silva, P., “Safety, Tolerability and Pharmacokinetic Profile of BIA 2-093, a Novel Putative Antiepileptic Agent, during First Administration to Humans,” Drugs R&D, 4, 269-284 (2003) (herein referred to as “Almeida II”).
The inventors performed entry-into-man studies in healthy subjects, the results of which they described in the Almeida I and Almeida II articles, both of which are hereby incorporated by reference. In these studies, the healthy subjects received a single oral dose of eslicarbazepine acetate wherein the dose ranged from 20 mg to 1200 mg (see Almeida II), and multiple daily-doses of eslicarbazepine acetate ranging from 200 mg twice-daily to 1200 mg once-daily (see Almeida I). Further studies (not yet published) by the inventors have investigated higher doses of eslicarbazepine acetate, including, for example, doses ranging up to 2400 mg once-daily.

[2] = Study in epileptic patients: trough plasma concentrations of BIA 2-005; type: in vivo, human
Text: This clinical trial was a double-blind, randomized, placebo-controlled study performed by 20 centers in Croatia, Czech Republic, Germany, Lithuania and Poland. The stated objectives of the study were to assess the efficacy and safety of BIA 2-093 as adjunctive therapy in patients with refractory partial epilepsy. In total, 143 patients aged 18-65 years with at least 4 partial-onset seizures per month in spite of treatment with 1 or 2 antiepileptic drugs (AEDs) (e.g., phenytoin, valproate, primidone, phenobarbital, lamotrigine, gabapentin, topiramate or clonazepam) were randomly assigned to one of three groups: treatment with placebo (n=47), BIA 2-093 once-daily (n=50), or BIA 2-093 twice-daily (n=46), during 12 weeks (plus 1 week of tapering off). For the first 4 weeks, daily dose was 400 mg. Then, daily doses were increased to 800 mg (weeks 5-8), and finally to 1200 mg (weeks 9-12). Tablets with strengths of 200 mg, 400 mg, and 600 mg eslicarbazepine acetate and placebo tablets were manufactured by BIAL (S. Mamede do Coronado, Portugal) in accordance with Good Manufacturing Practice. The assay plasma to determine the concentration of BIA 2-005 was performed with a non-chiral method using isocratic liquid chromatography (LC) with single quadrupole mass spectrometric detection (MS), as described herein. See, e.g., Almeida I and Almeida II.
Plasma/serum samples for the “trough” (pre-dose) levels of BIA 2-005 and concomitant AEDs were collected at all visits but V5 (post-study visit). The objective was to characterize the influence of eslicarbazepine acetate on the pharmacokinetic behavior of the concomitant AEDs (e.g., phenytoin, valproate, primidone, phenobarbital, lamotrigine, gabapentin, topiramate, and clonazepam).

[3] = Trial A: steady-state pharmacokinetics of once-daily and twice-daily regimens in healthy volunteers; type: in vivo, human; details: arithmetic mean; for AUC0-t / AUC0-∞ / Cmax / t1/2 / tmax: after last dose (8 days)
Description: This human pharmacology trial was a study to investigate the steady-state pharmacokinetics of once-daily and twice-daily regimens of eslicarbazepine acetate in healthy subjects. The study was a single center, open-label, randomized, two-way crossover study in 12 healthy volunteers (6 males and 6 females) that consisted of two 8-day treatment periods separated by a washout period of 10-15 days. […] Tablets with a strength of 450 mg of eslicarbazepine acetate, manufactured by BIAL (S. Mamede do Coronado, Portugal) in accordance with Good Manufacturing Practice, were used.
Blood samples for drug plasma assays were taken at the following times: […]
Blood samples were drawn either by direct venipuncture or via an intravenous catheter into lithium heparin tubes and centrifuged at approximately 1500 g for 10 minutes at 4° C. The resulting plasma was separated into 2 equal aliquots of 1 mL and stored at −20° C. until required for analysis.
Plasma concentrations of eslicarbazepine acetate, eslicarbazepine, and R-licarbazepine were determined using isocratic liquid chromatography (LC) with single quadrupole mass spectrometric detection (MS).
The method involved the addition of 500 μL of approximately 0.5 μg/mL of 10,11-dihydrocarbamazepine (internal standard prepared in acetonitrile:water, 3:97, v:v) to 250 μL of plasma (centrifuged at 1800 rpm, prior to analysis) in a polypropylene tube. After vortex mixing for 10 seconds, the mixture was transferred to a Schleicher and Schuell C18/100 mg 96 well solid phase extraction plate. Each well was preconditioned with 800 μL methanol, followed by 800 μL acetonitrile and 800 μL acetonitrile:water (3:97, v:v) prior to application of the total sample volume. Each polypropylene tube was then washed with 500 μL acetonitrile:water (3:97, v:v) and the washings transferred to the respective well. The compounds were eluted into a collection plate with 750 μL acetonitrile and the extract evaporated to dryness under oxygen-free nitrogen, at 40° C. All solid phase extraction manipulations were undertaken using the Tomtec QUADRA 96® Model 320 system and a vacuum was applied at each elution step. The final extract was reconstituted in 100 μL of water:methanol (90:10, v:v) and mixed. The collection plate was then centrifuged at approximately 3000 rpm (at approximately 4° C., for approximately 10 minutes) prior to analysis. An aliquot of the final extract (10 μL) was injected onto the LC-MS system.
The LC-MS system used in the analysis consisted of a Perkin Elmer series 200 micro pump, a Perkin Elmer series 200 autosampler, and a Perkin Elmer/Sciex API 150EX single quadrupole mass spectrometer fitted with a Turbo IonSpray® source. Separation was achieved using a LichroCART 250-4 ChiraDex column (β-cyclodextrin, 5 μm), a LichroCART 4-4 ChiraDex column guard column (β-cyclodextrin, 5 μm), a Jones Chromatography 7971 column heater at 50° C., a mobile phase A (0.2 mM sodium acetate, aq) and a mobile phase B (0.2 mM sodium acetate, MeOH). The MS detector was operated in positive ion mode with mass transitions for BIA 2-093, eslicarbazepine, R-licarbazepine, and the internal standard of 319.16 amu (200 ms), 277.08 amu (200 ms), 277.08 amu (200 ms) and 261.05 amu (200 ms), respectively. The limit of quantification of the assay was 10 ng/mL for eslicarbazepine acetate and 100 ng/mL for eslicarbazepine and R-licarbazepine.
Eslicarbazepine acetate, (S)-(−)-10-acetoxy-10,11-dihydro-5H-dibenz/b,f/azepine-5-carboxamide; eslicarbazepine, (S)-(+)-10,11-dihydro-10-hydroxy-5H dibenz/b,f/azepine-5-carboxamide; and R-licarbazepine, (R)-(−)-10,11-dihydro-10-hydroxy-5H dibenz/b,f/azepine-5-carboxamide, were synthesized in the Laboratory of Chemistry, BIAL, with purities>99.5%. The internal standard, 10,11-dihydrocarbamazepine was supplied by Sigma-Aldrich (St. Louis, Mo.).
The pharmacokinetic parameters were derived from non-compartmental analysis using WinNonlin (Version 4.0, Pharsight Corporation, Mountain View, Calif.). […]

[4] = tested on: refractory partial epilepsy (partial-onset seizures); assay: Study in epileptic patients: efficacy as adjunctive therapy; type: in vivo, human; details: once-daily group compared with the other groups
Description: This clinical trial was a double-blind, randomized, placebo-controlled study performed by 20 centers in Croatia, Czech Republic, Germany, Lithuania and Poland. The stated objectives of the study were to assess the efficacy and safety of BIA 2-093 as adjunctive therapy in patients with refractory partial epilepsy. […] For the first 4 weeks, daily dose was 400 mg. Then, daily doses were increased to 800 mg (weeks 5-8), and finally to 1200 mg (weeks 9-12). Tablets with strengths of 200 mg, 400 mg, and 600 mg eslicarbazepine acetate and placebo tablets were manufactured by […] do Coronado, Portugal) in accordance with Good Manufacturing Practice. […] See, […] and Almeida II. The proportion of patients with a 50% or greater reduction in seizure frequency in the treatment period compared to the baseline period in the intention-to-treat (ITT) population (n=143) was the primary efficacy endpoint. […] The proportion of responders in the once-daily group (54%) was also higher than in the twice-daily (41%) group. […] At this dose level, no significant difference was found between the twice-daily and the placebo groups. Secondary endpoints include the reduction in total seizure frequency, proportion of seizure-free patients, distribution of responders, comparison of once and twice daily regimens, and investigator's and patient's global evaluation.

[5] = Metabolic profile in liver microsomes, chiral analysis; type: in vitro ADME; details: liver microsomes from rats, dogs, monkeys and humans, not the R(−) form
[6] = tested on: voltage-gated sodium channel (VGSC); details: compared with carbamazepine; cited from earlier work
[7] = Trial B: pharmacokinetics following single doses in healthy young male subjects; type: in vivo, human
Description: (§1) This human pharmacology trial was a study to determine the pharmacokinetics of eslicarbazepine acetate following single and repeated doses. The study integrated the results of three double-blind, randomized, placebo-controlled trials. To measure the pharmacokinetics of eslicarbazepine acetate following single doses, oral single doses of eslicarbazepine acetate ranging from 20 mg to 2400 mg were administered to healthy young male subjects (6 subjects per dose). The pharmacokinetics of eslicarbazepine acetate following repeated doses were measured by administering repeated oral doses ranging from 400 mg to 2400 mg of eslicarbazepine acetate to healthy young male subjects (6 subjects per dose) over a period of 8 days. Analytical test methods and experimental procedures were similar to those described for Trial A above.

[8] = Trial B: pharmacokinetics following repeated once-daily doses over 8 days in healthy young male subjects; type: in vivo, human; details: for tmax: male, human, plasma, oral, read-out: Median tmax
Description: as §1

[9] = multiple oral dose of 900 mg eslicarbazepine acetate once-daily
[10] = multiple oral dose of 900 mg eslicarbazepine acetate twice-daily
[11] = single oral dose of 1200 mg eslicarbazepine acetate

mean renal clearance from plasma ([1]; BIA 2-005, healthy subjects): 20 to 30 mL/min
extent of systemic exposure ([1]; BIA 2-005 after oral eslicarbazepine acetate, healthy subjects): approximately dose-proportional
trough plasma concentration, mean (sd) ([2]; 400 mg/day eslicarbazepine acetate, b.i.d. group): 4.9 (2.3) μg/mL
trough plasma concentration, mean (sd) ([2]; 400 mg/day eslicarbazepine acetate, o.d. group): 4.0 (3.2) μg/mL
trough plasma concentration, mean (sd) ([2]; 800 mg/day eslicarbazepine acetate, b.i.d. group): 13.5 (9.6) μg/mL
trough plasma concentration, mean (sd) ([2]; 800 mg/day eslicarbazepine acetate, o.d. group): 10.7 (7.0) μg/mL
trough plasma concentration, mean (sd) ([2]; 1200 mg/day eslicarbazepine acetate, b.i.d. group): 15.5 (8.8) μg/mL
trough plasma concentration, mean (sd) ([2]; 1200 mg/day eslicarbazepine acetate, o.d. group): 14.6 (8.8) μg/mL
Structure (SMILES): NC(=O)N1c2ccccc2CC(O)c2ccccc21 (stereo not drawn) [BIA 2-005]

AUC0-t [3, 9]: 19,600 ng · h/mL
AUC0-∞ [3, 9]: 23.989 µg·h/mL
Cmax [3, 9]: 0.674 µg/mL
t1/2 [3, 9]: 15.0 h
tmax [3, 9]: 9.42 h
AUC0-τ ([3]; multiple oral dose of 900 mg eslicarbazepine acetate once-daily, dosing interval 24 hours): 13.397 µg·h/mL
AUC0-t [3, 10]: 19,661 ng · h/mL
AUC0-∞ [3, 10]: 23.807 µg·h/mL
Cmax [3, 10]: 0.718 µg/mL
t1/2 [3, 10]: 14.8 h
tmax [3, 10]: 6.40 h
AUC0-τ ([3]; multiple oral dose of 900 mg eslicarbazepine acetate twice-daily, dosing interval 12 hours): 7.783 µg·h/mL
Structure (SMILES): NC(=O)N1c2ccccc2C[C@@H](O)c2ccccc21 [R-licarbazepine, (R)-(−)-10,11-dihydro-10-hydroxy-5H dibenz/b,f/azepine-5-carboxamide]

Structure (SMILES): CC(=O)O[C@H]1Cc2ccccc2N(C(N)=O)c2ccccc21 [eslicarbazepine acetate, (S)-(−)-10-acetoxy-10,11-dihydro-5H-dibenz/b,f/azepine-5-carboxamide]
assessment of efficacy by the investigator (CGI) and of acceptability by patient [4]: rated best
metabolite formed [5]: S(+) enantiomer of licarbazepine
affinity for the resting state of the sodium channel, lower than that of carbamazepine [6]: about 3 fold

AUC0-t ([7]; male, human, plasma, single oral dose of 2400 mg eslicarbazepine acetate, read-out: Mean AUC0-24 h): 446 µg·h/mL
Mean apparent t1/2 ([7]; single oral dose of 20 mg eslicarbazepine acetate): 9.1 h
Median tmax ([7]; single oral dose of 400 mg eslicarbazepine acetate): 4 h
Median tmax ([7]; single oral dose of 600 mg eslicarbazepine acetate): 4 h
Mean AUC0-24 h [7, 11]: 285,700 ng · h/mL
Median tmax [7, 11]: 4 h
Mean apparent t1/2 ([7]; single oral dose of 2400 mg eslicarbazepine acetate): 11.1 h
Mean Cmax ([8]; last dose of 8-day repeated 800 mg o.d. eslicarbazepine acetate): 18,700 ng/mL
tmax ([8]; last dose of 8-day repeated 1800 mg o.d. eslicarbazepine acetate): 2 h
tmax ([8]; last dose of 8-day repeated 2400 mg o.d. eslicarbazepine acetate): 2 h
Structure (SMILES): NC(=O)N1c2ccccc2C[C@H](O)c2ccccc21 [eslicarbazepine, (S)-(+)-10,11-dihydro-10-hydroxy-5H dibenz/b,f/azepine-5-carboxamide]

— patent US11364247B2, “Methods of treatment of partial onset seizures using eslicarbazepine acetate” (BIAL-PORTELA & CA S.A., priority 2005, dated 2022)
